From patent US7833795B2, “Assessment of cardiovascular risk using isoprostane biomarkers and COX-2 selective inhibitors” (The Trustees of the University of Pennsylvania, priority 2004, dated 2010)

Key:
Assay type in all cases: in vivo, rat
[1] = tested on: Male Fisher 344 rats; assay: Plasma MDA, TBA colorimetric assay with 3rd derivative spectroscopy; conditions: plasma
Experimental: (§1) Animals and treatment protocol: Male Fisher 344 rats (260-280 g) obtained from Charles River Laboratories (Raleigh, N.C.) were used in all experiments. The animals were housed three to a cage. Autoclaved hardwood bedding was used in solid-bottom polycarbonate cages with filter tops. Animal rooms were maintained at 20-25° C. with 35-70% relative humidity with alternating 12-hour light and dark cycles. The rats had free access to deionized, reverse-osmosis-treated water and received autoclaved NIH 31 rodent chow (Zeigler Bros., Gardners, Pa.) ad libitum. For all experiments, rats were fasted overnight and then administered intraperitoneal injections of carbon tetrachloride in canola oil. Control rats received an equal volume of canola oil. Fasting continued throughout the experiment. Rats were anesthetized with Nembutal (0.1 ml/100 g body weight) and 5 ml blood was removed from the dorsal aorta proximal to its bifurcation into the common iliac arteries.
(§2) Carbon tetrachloride (CCL4) treatment: Animals from each of the three dose groups (Control-canola oil, 120 mg/kg CCl4 i.p. and 1200 mg/kg CCl4 i.p.) were investigated at three time points (2, 7, and 16 hours after CCl4 injection). Indomethacin-pretreated rats were also investigated at the same three time points, and the meclofenamic acid-pretreated rats were investigated at one time point (7 hours). Each group consisted of five rats for each analysis, except the meclofenamic acid pretreatment group which consisted of six rats. Animal treatment, sample preparation, assessment of liver histology and serum enzyme activities are described elsewhere (Kadiiska et al., 2000, Free Radic. Biol. Med. 28: 838-845; Jackson, 1989, J. Pharmacol. Exp. Ther. 250: 9-21) and were carried out at NIEHS, Research Triangle Park, N.C.
(§3) Plasma sample preparation: Blood (5 ml) was drawn through single draw Vacutainer® needles (21 Gauge) into open Vacutainer® blood collection tubes containing heparin. The tubes were gently inverted 2-3 times for mixing and immediately placed on ice. Blood was centrifuged (2,000 rpm for 10 minutes at 4° C.) no more than 30 minutes after collection, and the plasma was collected, frozen on dry ice and stored at −70° C.
Two colorimetric-based assays, using third derivative spectroscopy, were also used to measure MDA in plasma. The TBA colorimetric assay is designed to measure free MDA and MDA-protein adducts (Schiff base), and therefore includes mild acid hydrolysis. The Bioxytech® LPO-586™ colorimetric assay is based upon the reaction of the chromogenic reagent N-methyl-2-phenylindole (NMPI) with MDA at 45° C. One molecule of free MDA combines with 2 molecules of the chromogenic agent to produce a stable chromophore with a maximal absorbance at 586 nm. In both assays, the concentration of MDA was determined with 3rd derivative spectroscopy. Both assays were developed by OXIS Research Inc., Portland, Oreg., and were performed at OXIS and at Loyola University Medical Center, Maywood, Ill.

[2] = tested on: Male Fisher 344 rats; assay: Plasma lipid hydroperoxides (iodometric assay) after CCl4
Experimental: as §1, §2, §3
The second assay of plasma lipid hydroperoxides used iodometric spectrophotometric determination. Concentrations of lipid hydroperoxides were measured according to a slightly modified procedure of Cramer et al. (1991, Anal. Biochem. 193: 204-211) where plasma was treated to enzymatically hydrolyze lipids, and nonesterified fatty acid peroxides were then extracted with ethyl acetate. Extracted lipids were reacted with potassium iodide in citric acid and methylene chloride, and the resulting triiodide ion (I3^−) was measured spectrophotometrically. All measurements were done at the United States Environmental Protection Agency (EPA), Research Triangle Park, N.C.

[3] = tested on: Male Fisher 344 rats; assay: Urinary 8-OHdG by immunoassay; conditions: for 8-OHdG (by immunoassay): urine
Experimental: as §1, §2
Urine sample preparation: The day prior to treatment, both experimental and control animals were placed in stainless steel metabolic cages especially designed for urine collection. For Experimental Example 2, animals were placed in metabolic cages immediately after the last injection of indomethacin or meclofenamic acid. Urine was collected (in dark vials) from the animals during the following intervals: 2 to 7 hours and 7 to 16 hours after CCl4 or canola oil (controls) treatment. Urine samples from indomethacin-pretreated rats were collected from 2 to 7 hours and 7 to 16 hours after the injection of CCl4, whereas samples from meclofenamic-acid-pretreated rats were collected only from 2 to 7 hours after the injection. All urine samples were immediately frozen on dry ice and stored at −70° C.
8-Hydroxy-2′-deoxyguanosine (8-OHdG) was measured using an immunoassay. In brief, 8-OHdG was determined using a microtiter ELISA method where the test analyte competed with monoclonal antibody against 8-OHdG for 8-OHdG bound to the plate. After incubation and washing, an anti-mouse second antibody conjugated to horseradish peroxidase was used to determine the bound monoclonal antibody. The color yield is […] to the analyte concentration. Data reduction was by 4-parameter logistic curve fit. The assay was developed and measurements were performed by Oxis Research, Portland, Oreg.

[4] = tested on: Male Fisher 344 rats; assay: Plasma free 8-iso-PGF2α by GC/NICI-MS; conditions: for Free 8-iso-PGF2a (by GC-MS): plasma
Experimental: as §1
Indomethacin pretreatment: The indomethacin regimen used has been previously shown to inhibit COX activity in rats by 90% (dose of 5 mg/kg s.c. 24 hours, 12 hours, and 2 hours prior to the injection of CCl4) (Jackson, 1989, J. Pharmacol. Exp. Ther. 250: 9-21). An additional booster dose was injected 8 hours after the last injection of CCl4 for the measurements performed 16 hours after treatment with CCl4.
Meclofenamic acid pretreatment: Meclofenamic acid was injected at a dose of 5 mg/kg i.p. 12 h and 2 h prior to the injection of CCl4.
as §2, §3
Two slightly different methods developed in two different laboratories were used to measure the effect of CCl4 on the plasma levels of free 8-iso-PGF2α, and the sum of free plus esterified 8-iso-PGF2α (also known as 8-epi-PGF2α and iPF2α-III and 15-F2t-IsoP). Free 8-iso-PGF2α concentrations in plasma were determined by gas chromatography/negative ion chemical ionization mass spectrometry (GC/NICI-MS) by the method of Morrow et al. (1999, Methods Enzymol. 300: 3-12). Briefly, [2H4] 8-iso-PGF2α internal standard was added to plasma and F2-isoprostanes were extracted with a C18 Sep-Pak® Cartridge (Waters Associates, Milford, Mass.). The extracted F2-isoprostanes were converted to pentafluorobenzyl ester and purified by TLC after which they were converted to a trimethylsilyl ether derivative and subsequently analyzed by GC-MS. The assay was developed and performed at Vanderbilt University, Nashville, Tenn.

ClC(Cl)(Cl)Cl [CCl4, Carbon tetrachloride]
plasma MDA ([1]; CCl4 120 mg/kg i.p., 2 h): 0.268 µM
plasma MDA ([1]; CCl4 120 mg/kg i.p., 7 h): 0.209 µM
plasma MDA ([1]; CCl4 120 mg/kg i.p., 16 h): 0.214 µM
plasma MDA ([1]; CCl4 1200 mg/kg i.p., 2 h): 0.686 µM
plasma MDA ([1]; CCl4 1200 mg/kg i.p., 7 h): 0.274 µM
plasma MDA ([1]; CCl4 1200 mg/kg i.p., 16 h): 0.156 µM
LOOH (iodometric assay) ([2]; CCl4 120 mg/kg i.p., 2 h): 0.30 µM
LOOH (iodometric assay) ([2]; CCl4 120 mg/kg i.p., 7 h): 0.30 µM
LOOH (iodometric assay) ([2]; CCl4 120 mg/kg i.p., 16 h): 0.56 µM
LOOH (iodometric assay) ([2]; CCl4 1200 mg/kg i.p., 2 h): 1.42 µM
LOOH (iodometric assay) ([2]; CCl4 1200 mg/kg i.p., 7 h): 0.40 µM
LOOH (iodometric assay) ([2]; CCl4 1200 mg/kg i.p., 16 h): 0.39 µM
8-OHdG (by immunoassay) ([3]; CCl4 120 mg/kg i.p., 7 h): 42 ng/mg creatinine
8-OHdG (by immunoassay) ([3]; CCl4 120 mg/kg i.p., 16 h): 83 ng/mg creatinine
8-OHdG (by immunoassay) ([3]; CCl4 1200 mg/kg i.p., 7 h): 165 ng/mg creatinine
8-OHdG (by immunoassay) ([3]; CCl4 1200 mg/kg i.p., 16 h): 60 ng/mg creatinine
increase of urinary 8-OHdG ([3]; high dose CCl4, 7 h): 7 fold
increase of urinary 8-OHdG ([3]; high dose CCl4, 16 h): 3 fold
Free 8-iso-PGF2a (by GC-MS) ([4]; CCl4 120 mg/kg i.p., 2 h): 0.48 ng/mL
Free 8-iso-PGF2a (by GC-MS) ([4]; CCl4 120 mg/kg i.p., 7 h): 0.34 ng/mL
Free 8-iso-PGF2a (by GC-MS) ([4]; CCl4 120 mg/kg i.p., 16 h): 0.27 ng/mL
Free 8-iso-PGF2a (by GC-MS) ([4]; CCl4 1200 mg/kg i.p., 2 h): 1.80 ng/mL
Free 8-iso-PGF2a (by GC-MS) ([4]; CCl4 1200 mg/kg i.p., 7 h): 1.27 ng/mL
Free 8-iso-PGF2a (by GC-MS) ([4]; CCl4 1200 mg/kg i.p., 16 h): 0.74 ng/mL
increase of free plasma 8-iso-PGF2α ([4]; high dose CCl4, 2 hours): 18 fold
increase of free plasma 8-iso-PGF2α ([4]; high dose CCl4, 7 hours): 10 fold
increase of free plasma 8-iso-PGF2α ([4]; high dose CCl4, 16 hours): 7 fold
